Experimental data taken from ChEMBL document CHEMBL1124011, “Retinobenzoic acids. 1. Structure-activity relationships of aromatic amides with retinoidal activity” (1988).
Calls of active or inactive are those of the source. The calls are words filed in the database; no cut-off is given here.

Columns and labels:
[1] = test system: Panel leukemia (Carcinoma cell lines); assay: Effective dose for differentiation -inducing activity against human promyelocytic leukemia cells; assay type: functional; conditions: read-out: ED50 (the source's name)
[2] = Ratio of the ED50 of compound to that of ED50 of retinoic acid, expressed as relative activity; assay type: functional
[3] = test system: Panel leukemia (Carcinoma cell lines); assay: Effective dose for differentiation-inducing activity against human promyelocytic leukemia cells; assay type: functional, cell-based

SMILES | EC50 [1] [µM] | Ratio [2] | ED50 [3]
CC(C)(C)c1cc(NC(=O)c2ccc(C(=O)O)cc2)cc(C(C)(C)C)c1 | 0.036 | 0.15 | 
CC(C)c1ccc(NC(=O)c2ccc(C(=O)O)cc2)c(C(C)C)c1 |  |  | inactive
CC1(C)CCSc2ccc(NC(=O)c3ccc(C(=O)O)cc3)cc21 | 0.073 | 0.051 | 
O=C(O)c1ccc(C(=O)Nc2ccc3ccccc3c2)cc1 |  | 3.5 | inactive
Cc1cccc(NC(=O)c2ccc(C(=O)O)cc2)c1 |  |  | inactive
O=C(O)c1ccc(C(=O)Nc2ccccc2)cc1 |  |  | inactive
CC1(C)CCC(C)(C)c2cc(C(=O)Nc3ccc(C(=O)O)cc3)ccc21 | 0.00034 | 7.2 | 
O=C(O)c1ccc(C(=O)Nc2ccc3c(c2)C2CCC3CC2)cc1 | > 10 | < 0.001 | 
CN(C(=O)c1ccc2c(c1)C(C)(C)CCC2(C)C)c1ccc(C(=O)O)cc1 | > 1 | < 0.0001 | 
CCc1cccc(NC(=O)c2ccc(C(=O)O)cc2)c1 |  |  | inactive
O=C(O)c1ccc(C(=O)Nc2cccc3c2CCCC3)cc1 |  |  | inactive
O=C(O)c1ccc(C(=O)Nc2cccc3ccccc23)cc1 |  |  | inactive
CC1(C)CCC(C)(C)c2cc(NC(=O)c3ccc(C(=O)O)cc3)c(Br)cc21 | > 1 | < 0.0001 | 
CC(C)(C)c1ccc(C(=O)Nc2ccc(C(=O)O)cc2)cc1 | > 10 | < 0.001 | 
CC(C)c1ccccc1NC(=O)c1ccc(C(=O)O)cc1 |  |  | inactive
O=C(O)c1ccc(C(=O)Nc2cccc(-c3ccccc3)c2)cc1 |  |  | inactive
Cc1cc2c(cc1NC(=O)c1ccc(C(=O)O)cc1)C(C)(C)CCC2(C)C | 0.35 | 0.006 | 
CC1(C)CCC(C)(C)c2cc(NC(=O)c3ccc(C(=O)O)cc3)ccc21 [TAMIBAROTENE] | 0.00079 | 3.5 | 
O=C(O)c1ccc(C(=O)Nc2cccc(C3CCCCC3)c2)cc1 | > 1 | < 0.0001 | 
CN(C(=O)c1ccc(C(=O)O)cc1)c1ccc2c(c1)C(C)(C)CCC2(C)C | > 1 | < 0.0001 | 
CC(C)c1cc(NC(=O)c2ccc(C(=O)O)cc2)cc(C(C)C)c1 | 0.038 | 0.042 | 
CC(C)(C)c1cc(C(=O)Nc2ccc(C(=O)O)cc2)cc(C(C)(C)C)c1 | 0.048 | 0.056 | 
CC1(C)CCC(C)(C)c2cc([N+](=O)[O-])c(NC(=O)c3ccc(C(=O)O)cc3)cc21 | > 10 | < 0.001 | 

SMILES | EC50 [1] [µM] | Ratio [2] | ED50 [3]
CC(C)c1cccc(C(C)C)c1NC(=O)c1ccc(C(=O)O)cc1 |  |  | inactive
CC(C)c1ccc(NC(=O)c2ccc(C(=O)O)cc2)cc1 | 0.91 | 9.8 | 
CC1(C)CCS(=O)(=O)c2ccc(C(=O)Nc3ccc(C(=O)O)cc3)cc21 |  |  | inactive
CC(C)(C)c1cc(C(C)(C)C)c(NC(=O)c2ccc(C(=O)O)cc2)c(C(C)(C)C)c1 |  |  | inactive
O=C(O)c1ccc(NC(=O)c2ccccc2)cc1 |  |  | inactive
CC(C)(C)c1ccc(NC(=O)c2ccc(C(=O)O)cc2)cc1 | > 10 | < 0.001 | 
CC1(C)CCC(C)(C)c2c(NC(=O)c3ccc(C(=O)O)cc3)cccc21 | > 1 | < 0.0001 | 
CC(C)c1cccc(NC(=O)c2ccc(C(=O)O)cc2)c1 | 0.68 | 1.3 | 
CN(C)c1cccc(NC(=O)c2ccc(C(=O)O)cc2)c1 |  |  | inactive
CC(C)c1ccc(C(=O)Nc2ccc(C(=O)O)cc2)cc1C(C)C | 0.068 | 0.04 | 
CC(C)(C)c1cccc(C(=O)Nc2ccc(C(=O)O)cc2)c1 | > 10 | < 0.001 | 
CC(C)(C)c1cccc(NC(=O)c2ccc(C(=O)O)cc2)c1 | 0.7 | 3.2 | 
CCc1ccc(NC(=O)c2ccc(C(=O)O)cc2)cc1CC | 0.26 | 0.0077 | 
CC(C)c1ccc(C(C)C)c(NC(=O)c2ccc(C(=O)O)cc2)c1 |  |  | inactive
CC(C)c1ccc(NC(=O)c2ccc(C(=O)O)cc2)cc1C(C)C | 0.0021 | 1.4 | 
CC1(C)CCC(C)(C)c2cc(NC(=O)c3ccc(C(=O)O)cc3)c(N)cc21 | 0.56 | 0.011 | 
CC1(C)CCOc2ccc(C(=O)Nc3ccc(C(=O)O)cc3)cc21 | 0.8 | 0.0035 | 
CC1(C)CCOc2ccc(NC(=O)c3ccc(C(=O)O)cc3)cc21 | > 1 | < 0.0001 | 
CC1=C(/C=C/C(C)=C/C=C/C(C)=C/C(=O)O)C(C)(C)CCC1 [TRETINOIN] | 0.0024 | 1 | 
CC1(C)CCOc2c(Cl)cc(C(=O)Nc3ccc(C(=O)O)cc3)cc21 | 0.075 | 0.037 | 
CC12CCC(C)(CC1)c1cc(NC(=O)c3ccc(C(=O)O)cc3)ccc12 | 0.068 | 0.059 | 
O=C(O)c1ccc(C(=O)Nc2cccc(Br)c2)cc1 |  |  | inactive
